The text below walks through data of ChEMBL document CHEMBL1201862, “PubChem BioAssay data set” (2004).

Among the test systems are SF-295; HT-29; OVCAR-5; SN12C; MDA-MB-435; EKVX; SNB-19; NCI-H460; TK-10; HOP-92; NCI/ADR-RES; A498; MDA-N; 786-0; OVCAR-8; T47D; COLO 205; Malme-3M; NCI-H226; M14.
What all share (test): NCI tumour cell line growth inhibition, 48 h

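96-well plates; 48 h exposure; 5 concentrations. Endpoints by linear interpolation between flanking doses. Not reached: highest tested concentration assigned. GI50 is the concentration that inhibits growth by half.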 Calls of active or inactive are those of the source. Rule as the data show it: active = GI50 up to about 1.1 µM and inactive = higher.

Consider `N#Cc1ncc(C(Cl)Cl)nc1Cl`, for which the GI50 in the test with SF-295 was 7.24 µM (inactive); with HT-29 it was 1.74 µM (inactive); in the test on OVCAR-5 it was 1.95 µM (inactive); in the test with SN12C, 1.74 µM (inactive); in the test with MDA-MB-435, 1.76 µM (inactive); with EKVX, 1.75 µM (inactive). Further, the GI50 was 6.38 µM (inactive) with SNB-19; 1.81 µM (inactive) with NCI-H460; 2.35 µM (inactive) with TK-10; 0.00769 µM (active) with HOP-92; 2.14 µM (inactive) with NCI/ADR-RES; > 10 µM (inactive) in the test on A498. Further, the GI50 is 1.5 µM (inactive) in the test with MDA-N; 1.76 µM (inactive) in the test with 786-0; 2.15 µM (inactive) with OVCAR-8; 1.76 µM (inactive) in the test with T47D; 1.77 µM (inactive) in the test on COLO 205; 2.43 µM (inactive) in the test on Malme-3M. Further, the GI50 is 9.27 µM (inactive) in the test with NCI-H226 and 1.13 µM (inactive) in the test on M14.
In the case of `CCCCCCCCCCCC(=O)N(CCCCCCCCCCC(=O)O)CC(O)C(O)C(OC1OC(CO)C(O)C(O)C1O)C(O)CO` (stereo not given), the GI50 in the test with SF-295, in the test on HT-29, in the test on OVCAR-5, in the test on SN12C, in the test with MDA-MB-435 and in the test on EKVX was > 100 µM (inactive) throughout. Further, the GI50 with SNB-19, in the test with NCI-H460, in the test with TK-10, with HOP-92, with NCI/ADR-RES and in the test with A498 was > 100 µM (inactive) throughout. Also, the GI50 with MDA-N, with 786-0, with OVCAR-8, with T47D, in the test on COLO 205 and with Malme-3M was > 100 µM (inactive) each time. In addition, the GI50 in the test on NCI-H226 and in the test with M14 was > 100 µM (inactive) in each case.
Turning to `CN1CCN([C@H]2C[C@H]3[C@@H]4CC=C5C[C@@H](O)CC[C@]5(C)[C@H]4CC[C@]3(C)C2=O)CC1`, the GI50 was > 100 µM (inactive) in the test on SF-295; 42.2 µM (inactive) with HT-29; > 100 µM (inactive) in the test on OVCAR-5; > 100 µM (inactive) in the test with SN12C; > 100 µM (inactive) in the test on MDA-MB-435; > 100 µM (inactive) with EKVX. The GI50 in the test with SNB-19, with NCI-H460, in the test on TK-10, in the test on HOP-92, with NCI/ADR-RES and in the test with A498 was > 100 µM (inactive) in each case. Moreover, the GI50 with MDA-N, in the test on 786-0, in the test with OVCAR-8, with T47D, with COLO 205 and in the test on Malme-3M was > 100 µM (inactive) each time. Moreover, the GI50 in the test with NCI-H226 and in the test on M14 was > 100 µM (inactive) in each case.
For the compound `COC(=O)C1CCC(=O)N1CN(C(C)=O)c1ccccc1Cl` (stereo not given), the GI50 in the test with SF-295, in the test on HT-29, with OVCAR-5, in the test on SN12C, in the test on MDA-MB-435 and with EKVX was > 100 µM (inactive) throughout. For the same compound, the GI50 in the test with SNB-19, with NCI-H460, in the test with TK-10, with HOP-92, in the test on NCI/ADR-RES and in the test on A498 was > 100 µM (inactive) each time. In addition, the GI50 in the test on MDA-N, in the test on 786-0, in the test on OVCAR-8, in the test with T47D, in the test on COLO 205 and in the test on Malme-3M was > 100 µM (inactive) throughout. Also, the GI50 in the test with NCI-H226 and in the test with M14 was > 100 µM (inactive) each time.
On to `CCCCCCC(O)C(O)CCC(O)C1CCC(CCCCC(O)CC2=CC(C)OC2=O)O1` (stereo not given) [ACETOGENINS], for which the GI50 was 1.83 µM (inactive) with SF-295; 2.33 µM (inactive) with HT-29; 8.3 µM (inactive) in the test on OVCAR-5; 3.08 µM (inactive) in the test with SN12C; 17.4 µM (inactive) with MDA-MB-435; 1.92 µM (inactive) in the test with EKVX. Further, the GI50 was 2.74 µM (inactive) in the test with SNB-19; 2.59 µM (inactive) in the test with NCI-H460; 8.09 µM (inactive) in the test on TK-10; 4.88 µM (inactive) in the test on HOP-92; 1.14 µM (inactive) with NCI/ADR-RES; 17.5 µM (inactive) with A498. The GI50 in the test with MDA-N is 2.32 µM (inactive); in the test with 786-0 it was 6.58 µM (inactive); with OVCAR-8, 2.18 µM (inactive); in the test with T47D, 3.13 µM (inactive); with COLO 205, 1.75 µM (inactive); in the test on Malme-3M it was 17 µM (inactive). Also, the GI50 is 1.74 µM (inactive) in the test with NCI-H226 and 3.15 µM (inactive) in the test on M14.
